According to ChEMBL document CHEMBL4725253, “Discovery of quinoline-based irreversible BTK inhibitors” (Bioorg Med Chem Lett, 2020):

Columns and labels:
[1] = biological target: Epidermal growth factor receptor (Homo sapiens, UniProt P00533); assay: Inhibition of EGFR (unknown origin) expressed in baculovirus system using fluorescein labeled PDGFR-tide substrate peptide preincubated for 60 mins followed by ATP addition and measured after 60 mins by IMAP assay
[2] = Inhibition of anti-human alphaIgM-stimulated MIP1beta production in human Ramos B cells preincubated for 1 hr followed by anti-human IgM stimulation for 6 hrs by ELISA; assay type: functional, cell-based
[3] = organism: Homo sapiens; assay: Selectivity index, ratio of IC50 for EGFR (unknown origin) expressed in baculovirus system to IC50 for human recombinant full length N-terminal His6-tagged BTK expressed in baculovirus infected Sf9 cells
[4] = biological target: T1, Tyrosine-protein kinase BTK (Homo sapiens, UniProt Q06187); assay: Inhibition of human recombinant full length N-terminal His6-tagged BTK expressed in baculovirus infected Sf9 cells using fluorescein labeled Blk/Lyntide substrate preincubated with enzyme for 60 mins followed by further incubation with substrate and ATP for 120 mins by IMAP assay
T1 sequence (Q06187 whole entry): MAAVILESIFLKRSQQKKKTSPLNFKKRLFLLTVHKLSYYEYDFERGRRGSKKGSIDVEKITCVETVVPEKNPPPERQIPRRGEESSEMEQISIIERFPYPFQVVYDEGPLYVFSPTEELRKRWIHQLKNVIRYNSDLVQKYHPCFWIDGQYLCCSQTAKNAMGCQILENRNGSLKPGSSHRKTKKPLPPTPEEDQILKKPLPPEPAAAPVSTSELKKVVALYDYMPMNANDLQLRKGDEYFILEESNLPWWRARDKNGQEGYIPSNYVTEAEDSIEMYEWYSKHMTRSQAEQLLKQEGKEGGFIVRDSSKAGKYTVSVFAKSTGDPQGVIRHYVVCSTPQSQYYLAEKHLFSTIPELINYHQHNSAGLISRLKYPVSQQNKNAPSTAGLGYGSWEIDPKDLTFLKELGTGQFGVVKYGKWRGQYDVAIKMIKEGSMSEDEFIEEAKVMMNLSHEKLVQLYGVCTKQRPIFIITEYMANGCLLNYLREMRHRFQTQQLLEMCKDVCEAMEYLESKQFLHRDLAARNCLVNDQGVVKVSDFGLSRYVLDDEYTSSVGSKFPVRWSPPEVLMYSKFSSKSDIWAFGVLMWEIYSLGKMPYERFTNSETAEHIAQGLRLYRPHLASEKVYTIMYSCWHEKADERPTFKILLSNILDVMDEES

[5] = Inhibition of goat anti-human IgM F(ab')-stimulated CD69 cell surface expression in human PBMC preincubated for 2 hrs followed by anti-human IgM stimulation for 18 hrs by flow cytometric analysis; assay type: functional, tissue-based
[6] = tested on: Blood; assay: Inhibition of mouse anti-human anti-IgD-stimulated CD69 cell surface expression in human whole blood preincubated for 2 hrs followed by anti-human anti-IgD stimulation for 18 hrs by flow cytometric analysis; assay type: functional, tissue-based
[7] = biological target: T1, Tyrosine-protein kinase BTK; assay: Covalent inhibition of His-tagged human full length recombinant BTK expressed in baculovirus expression system incubated for 5 to 120 mins by Lanthascreen TR-FRET assay; conditions: time min 5-120, TDE = time-dependent effect
[8] = In vivo inhibition of CD69 expression in po dosed mouse; assay type: functional
[9] = biological target: Tyrosine-protein kinase Blk (Homo sapiens, UniProt P51451); assay: Inhibition of recombinant full length human His-tagged BLK cytoplasmic domain expressed in baculovirus expression system using tyrosine-1 peptide as substrate preincubated for 1 hr in presence of ATP by Z'-LYTE assay
Chain of Tyrosine-protein kinase Blk (P51451 whole entry, the tested form may be a part): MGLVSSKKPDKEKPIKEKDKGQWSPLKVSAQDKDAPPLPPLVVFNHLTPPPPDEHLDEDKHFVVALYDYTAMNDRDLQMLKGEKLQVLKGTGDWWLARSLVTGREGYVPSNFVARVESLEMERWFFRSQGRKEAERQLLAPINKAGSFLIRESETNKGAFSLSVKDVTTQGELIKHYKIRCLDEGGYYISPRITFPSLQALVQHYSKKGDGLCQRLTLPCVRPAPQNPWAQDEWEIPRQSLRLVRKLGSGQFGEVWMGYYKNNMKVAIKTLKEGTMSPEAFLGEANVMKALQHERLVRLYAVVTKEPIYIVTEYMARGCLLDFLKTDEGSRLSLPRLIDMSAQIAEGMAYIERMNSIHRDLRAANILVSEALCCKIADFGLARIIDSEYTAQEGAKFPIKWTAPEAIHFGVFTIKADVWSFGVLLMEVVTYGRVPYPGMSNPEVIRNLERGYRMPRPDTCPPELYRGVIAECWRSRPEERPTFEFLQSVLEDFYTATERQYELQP

[10] = Solubility of compound by turbidimetric assay; assay type: physicochemical

Chain of Epidermal growth factor receptor (P00533 whole entry): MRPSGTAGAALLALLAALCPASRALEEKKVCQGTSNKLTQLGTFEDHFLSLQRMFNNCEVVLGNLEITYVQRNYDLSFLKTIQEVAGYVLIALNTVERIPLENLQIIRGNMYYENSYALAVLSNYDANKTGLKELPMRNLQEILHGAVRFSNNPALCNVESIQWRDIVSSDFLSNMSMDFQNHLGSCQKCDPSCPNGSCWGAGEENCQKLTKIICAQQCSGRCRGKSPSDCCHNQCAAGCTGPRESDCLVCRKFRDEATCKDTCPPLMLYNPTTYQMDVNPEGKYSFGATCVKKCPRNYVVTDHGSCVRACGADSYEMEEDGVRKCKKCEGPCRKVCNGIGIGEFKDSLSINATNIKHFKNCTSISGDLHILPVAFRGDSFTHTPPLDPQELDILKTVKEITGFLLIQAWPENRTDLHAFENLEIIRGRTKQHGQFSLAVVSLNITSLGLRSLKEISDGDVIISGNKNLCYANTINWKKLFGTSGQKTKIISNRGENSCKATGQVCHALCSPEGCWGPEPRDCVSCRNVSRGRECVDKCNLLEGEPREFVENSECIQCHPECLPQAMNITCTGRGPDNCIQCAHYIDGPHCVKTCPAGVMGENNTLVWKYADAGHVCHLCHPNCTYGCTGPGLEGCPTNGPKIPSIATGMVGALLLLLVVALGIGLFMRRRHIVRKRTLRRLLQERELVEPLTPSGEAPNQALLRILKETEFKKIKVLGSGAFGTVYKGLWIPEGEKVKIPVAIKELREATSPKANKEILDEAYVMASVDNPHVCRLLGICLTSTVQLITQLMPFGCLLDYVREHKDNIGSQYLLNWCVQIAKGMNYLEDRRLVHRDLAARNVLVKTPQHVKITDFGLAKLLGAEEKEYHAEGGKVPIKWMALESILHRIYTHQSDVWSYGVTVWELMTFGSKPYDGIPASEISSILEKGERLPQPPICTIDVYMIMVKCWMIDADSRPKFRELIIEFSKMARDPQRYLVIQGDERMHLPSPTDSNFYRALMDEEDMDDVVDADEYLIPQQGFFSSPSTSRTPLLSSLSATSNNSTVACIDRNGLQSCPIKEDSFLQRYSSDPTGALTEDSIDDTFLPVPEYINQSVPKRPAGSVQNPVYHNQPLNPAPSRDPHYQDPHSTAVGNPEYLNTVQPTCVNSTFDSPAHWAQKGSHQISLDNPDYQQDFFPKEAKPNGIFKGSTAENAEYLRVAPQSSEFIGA

Compound `CCN1CCN(CC#CC(=O)Nc2ccc3nccc(Oc4ccc(C(=O)Nc5ccccn5)cc4)c3c2)CC1` has an IC50 [1] of 55 nM, an EC50 [2] of 18 nM and a Ratio IC50 [3] of 22. It also gave an IC50 [4] of 2.5 nM.
Work on `C=CC(=O)Nc1ccc2nccc(Oc3ccc(C(=O)Nc4ccccn4)cc3)c2c1` yielded an IC50 [1] of 159 nM, an EC50 [2] of 112 nM and an IC50 [4] of 3.5 nM.
With `CC#CC(=O)Nc1cc2c(Oc3ccc(C(=O)Nc4ccccn4)cc3)ccnc2cc1OCCCN1CCN(C)CC1` the IC50 [1] was 233 nM, the EC50 [5] was 2.1 nM and the EC50 [2] was 3.9 nM. It also gave an EC50 [6] of 35 nM and an IC50 [4] of 1 nM.
For `CN(C)C/C=C/C(=O)Nc1ccc2nccc(Oc3ccc(C(=O)Nc4ccccn4)cc3)c2c1`, the IC50 [1] was 275 nM, the EC50 [2] was 89 nM and the IC50 [4] was 7.2 nM.
In the case of `C=CC(=O)Nc1ccc2ncnc(Oc3ccc(C(=O)Nc4ccccn4)cc3)c2c1`, the inhibition [7] is reported as “Tde”, the IC50 [1] is reported as 11 nM and the EC50 [4] is reported as 7.2 nM.
`COCC#CC(=O)Nc1ccc2nccc(Oc3ccc(C(=O)Nc4ccccn4)cc3)c2c1` showed an IC50 [1] of 16 nM, an EC50 [2] of 7 nM and an IC50 [4] of 0.15 nM.
Work on `CC#CC(=O)N1CCC[C@H]1c1nc(-c2ccc(C(=O)Nc3ccccn3)cc2)c2c(N)nccn12` [ACALABRUTINIB] yielded an ED50 [8] of 1.3 mg/kg and an IC50 [9] greater than 1000 nM.
Compound `O=C(C#CCO)Nc1ccc2nccc(Oc3ccc(C(=O)Nc4ccccn4)cc3)c2c1` has an IC50 [1] of 6.3 nM, a solubility kinetic [10] of less than 1 µM and an EC50 [2] of 28 nM. The Ratio IC50 [3] was 19 and the IC50 [4] was 0.33 nM.
`O=C(C#CCCN1CCOCC1)Nc1ccc2nccc(Oc3ccc(C(=O)Nc4ccccn4)cc3)c2c1` gave an IC50 [1] of 81 nM, an EC50 [2] of 25 nM and an IC50 [4] of 0.8 nM.
Compound `CC#CC(=O)Nc1ccc2nccc(Oc3ccc(C(=O)Nc4ccccn4)cc3)c2c1` has an IC50 [1] greater than 1000 nM, an EC50 [2] of 152 nM and an IC50 [4] of 4.7 nM.
For `COCC#CC(=O)Nc1cc2c(Oc3ccc(C(=O)Nc4ccccn4)cc3)ccnc2cc1OC`, the IC50 [1] was 12 nM, the EC50 [2] was 12 nM and the IC50 [4] was 0.96 nM.
In the case of `CC#CC(=O)Nc1cc2c(Oc3ccc(C(=O)Nc4ccccn4)cc3)ccnc2cc1OC1CCOCC1`, the IC50 [1] is reported as greater than 1000 nM, the EC50 [2] is reported as 152 nM and the IC50 [4] is reported as 3.8 nM.
In the case of `COc1cc2nccc(Oc3ccc(C(=O)Nc4ccccn4)cc3)c2cc1NC(=O)C#CCN1CCOCC1`, the IC50 [1] is reported as 24 nM, the EC50 [5] is reported as 1.5 nM and the EC50 [2] is reported as 2.1 nM. The EC50 [6] was 12 nM and the IC50 [4] was 0.47 nM.
For `O=C(C#CCN1CCOCC1)Nc1ccc2nccc(Oc3ccc(C(=O)Nc4ccccn4)cc3)c2c1`, the IC50 [1] was 13 nM, the EC50 [2] was 12 nM and the IC50 [4] was 0.26 nM.
Work on `C=CC(=O)Nc1ccc2ncnc(Nc3ccc(C(=O)Nc4ccccn4)cc3)c2c1` yielded an IC50 [1] of 3.8 nM and an EC50 [4] of 18 nM.
For `CC#CC(=O)Nc1cc2c(Oc3ccc(C(=O)Nc4ccccn4)cc3)ccnc2cc1OC`, the IC50 [1] was greater than 1000 nM, the EC50 [5] was 9.7 nM and the EC50 [2] was 29 nM. It also gave an EC50 [6] of 66 nM and an IC50 [4] of 1.5 nM.
